Results: PubChem BioAssay AID248 (DTP/NCI, 2004)
Values joined by “and” are separate entries in the source; they are usually repeats but may differ in a detail not shown here. Equal values may be shown once. Inconclusive results and toxic doses are left out. Cut-off read from the data, not from the text of the source: active = T/C of 150% or more; inactive = T/C below 125%.

Test system: L1210 leukemia ip in BDF1 mice, survival T/C
Experiment: NCI In Vivo Anticancer Drug Screen. Data for tumor model L1210 Leukemia (intraperitoneal) in B6D2F1 (BDF1) mice
Conditions: endpoint: mean survival time, higher = longer survival
Procedure, shortened: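 Mice bearing the transplanted tumor received compound or vehicle. Survival of the treated group was divided by that of the vehicle-treated control group to give the ratio.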

[1] = dose: 100.0 mg/kg/injection, schedule: Q04DX003 (ip), vehicle: Klucel (hydroxypropylcellulose) (HPC)
[2] = dose: 200.0 mg/kg/injection, schedule: Q04DX003 (ip), vehicle: Klucel (hydroxypropylcellulose) (HPC)
[3] = dose: 400.0 mg/kg/injection, schedule: Q04DX003 (ip), vehicle: Klucel (hydroxypropylcellulose) (HPC)
[4] = dose: 100.0 mg/kg/injection, schedule: Q01DX009 (ip), vehicle: saline with Tween-80
[5] = dose: 100.0 mg/kg/injection, schedule: Q04DX002 (ip), vehicle: saline with Tween-80
[6] = dose: 200.0 mg/kg/injection, schedule: Q01DX009 (ip), vehicle: saline with Tween-80
[7] = dose: 200.0 mg/kg/injection, schedule: Q04DX002 (ip), vehicle: saline with Tween-80
[8] = dose: 400.0 mg/kg/injection, schedule: Q01DX009 (ip), vehicle: saline with Tween-80
[9] = dose: 400.0 mg/kg/injection, schedule: Q04DX002 (ip), vehicle: saline with Tween-80
[10] = dose: 50.0 mg/kg/injection, schedule: Q01DX001 (ip), vehicle: Klucel (hydroxypropylcellulose) (HPC)
[11] = dose: 100.0 mg/kg/injection, schedule: Q04DX003 (ip), vehicle: saline with Tween-80
[12] = dose: 200.0 mg/kg/injection, schedule: Q04DX003 (ip), vehicle: saline with Tween-80
[13] = dose: 400.0 mg/kg/injection, schedule: Q04DX003 (ip), vehicle: saline with Tween-80
[14] = dose: 100.0 mg/kg/injection, schedule: Q01DX001 (ip), vehicle: saline with Tween-80
[15] = dose: 200.0 mg/kg/injection, schedule: Q01DX001 (ip), vehicle: saline with Tween-80
[16] = dose: 400.0 mg/kg/injection, schedule: Q01DX001 (ip), vehicle: saline with Tween-80

Measured: T/C

CCCCc1c(N)nc(=S)[nH]c1C(=O)O
inactive: dose: 75.0 mg/kg/injection, schedule: Q01DX009 (ip), vehicle: Klucel (hydroxypropylcellulose) (HPC) 98 % of control | [1] 95 % of control | dose: 150.0 mg/kg/injection, schedule: Q01DX009 (ip), vehicle: Klucel (hydroxypropylcellulose) (HPC) 106 % of control | [2] 98 % of control and 91 % of control | dose: 300.0 mg/kg/injection, schedule: Q01DX009 (ip), vehicle: Klucel (hydroxypropylcellulose) (HPC) 108 % of control | [3] 96 % of control

CCC1(C)CC1(Cl)Cl (centres undefined)
inactive: dose: 100.0 mg/kg/injection, schedule: Q04DX003 (ip), vehicle: other 105 % of control | dose: 200.0 mg/kg/injection, schedule: Q04DX003 (ip), vehicle: other 102 % of control | dose: 400.0 mg/kg/injection, schedule: Q04DX003 (ip), vehicle: other 100 % of control

CCOC(=O)c1cnc(SC)nc1Nc1cccc(Cl)c1Cl
inactive: [1] 100 % of control | [2] 95 % of control | [3] 94 % of control

C/C(=C1\SC(=S)N(C2OC(CO)C(O)C(O)C2O)C1=O)c1ccco1 (centres undefined)
inactive: dose: 12.5 mg/kg/injection, schedule: Q01DX005 (ip), vehicle: water 109 % of control | dose: 25.0 mg/kg/injection, schedule: Q01DX005 (ip), vehicle: water 95 % of control | dose: 50.0 mg/kg/injection, schedule: Q01DX005 (ip), vehicle: water 111 % of control | dose: 100.0 mg/kg/injection, schedule: Q01DX005 (ip), vehicle: water 98 % of control | dose: 200.0 mg/kg/injection, schedule: Q01DX005 (ip), vehicle: water 93 % of control

CCCCCCCCCCCC(=O)NC(=S)Nc1ccccc1C(=O)OC
inactive: dose: 25.0 mg/kg/injection, schedule: Q01DX009 (ip), vehicle: saline with Tween-80 93 % of control | dose: 50.0 mg/kg/injection, schedule: Q01DX009 (ip), vehicle: saline with Tween-80 93 % of control | [4] 96 % of control and 92 % of control | [5] 102 % of control and 109 % of control | [6] 104 % of control and 86 % of control and 90 % of control | [7] 105 % of control and 89 % of control | [8] 94 % of control and 108 % of control | [9] 94 % of control and 88 % of control

Cc1ccccc1S(=O)(=O)NC1c2ccccc2Oc2ccccc21
inactive: dose: 75.0 mg/kg/injection, schedule: Q01DX001 (ip), vehicle: saline 96 % of control | dose: 75.0 mg/kg/injection, schedule: Q01DX009 (ip), vehicle: saline 86 % of control | dose: 150.0 mg/kg/injection, schedule: Q01DX001 (ip), vehicle: saline 86 % of control | dose: 300.0 mg/kg/injection, schedule: Q01DX001 (ip), vehicle: saline 86 % of control

O=C1Nc2ccc(Br)cc2C1=Nc1ccc2c(c1)OCO2
inactive: dose: 100.0 mg/kg/injection, schedule: Q04DX002 (ip), vehicle: Klucel (hydroxypropylcellulose) (HPC) 100 % of control | dose: 200.0 mg/kg/injection, schedule: Q04DX002 (ip), vehicle: Klucel (hydroxypropylcellulose) (HPC) 95 % of control | dose: 400.0 mg/kg/injection, schedule: Q04DX002 (ip), vehicle: Klucel (hydroxypropylcellulose) (HPC) 100 % of control

CCCCCCCCCCCCCCCCSCCOC(=O)C1C2CCC(O2)C1C(=O)O (centres undefined)
inactive: dose: 12.5 mg/kg/injection, schedule: Q01DX001 (ip), vehicle: Klucel (hydroxypropylcellulose) (HPC) 107 % of control | dose: 25.0 mg/kg/injection, schedule: Q01DX001 (ip), vehicle: Klucel (hydroxypropylcellulose) (HPC) 101 % of control | [10] 98 % of control

O=C1C(c2c[nH]c3ccc(Br)cc23)=Nc2ccc(Br)cc21
inactive: dose: 100.0 mg/kg/injection, schedule: Q01DX001 (ip), vehicle: saline 102 % of control | dose: 200.0 mg/kg/injection, schedule: Q01DX001 (ip), vehicle: saline 100 % of control | dose: 400.0 mg/kg/injection, schedule: Q01DX001 (ip), vehicle: saline 105 % of control

COC(=O)c1cc([N+](=O)[O-])ccc1Br
inactive: [11] 101 % of control | [12] 93 % of control | [13] 104 % of control

CCCCCCCCC/C=C(\CCCCCCCCCC)c1cc(C)ccc1C
inactive: dose: 12.5 mg/kg/injection, schedule: Q04DX002 (ip), vehicle: saline with Tween-80 94 % of control

O=C1c2ccccc2-c2ccc(Br)c3cccc1c23
inactive: dose: 50.0 mg/kg/injection, schedule: Q01DX009 (ip), vehicle: Klucel (hydroxypropylcellulose) (HPC) 93 % of control | dose: 50.0 mg/kg/injection, schedule: Q04DX003 (ip), vehicle: Klucel (hydroxypropylcellulose) (HPC) 100 % of control | dose: 100.0 mg/kg/injection, schedule: Q01DX009 (ip), vehicle: Klucel (hydroxypropylcellulose) (HPC) 91 % of control | [1] 95 % of control | dose: 200.0 mg/kg/injection, schedule: Q01DX009 (ip), vehicle: Klucel (hydroxypropylcellulose) (HPC) 91 % of control | [2] 100 % of control

O=C1OCc2cc3ccccc3nc21
inactive: [4] 94 % of control | [11] 105 % of control | [6] 97 % of control | [12] 105 % of control | [8] 92 % of control | [13] 96 % of control

COC(=N)Cc1ccc(F)cc1
inactive: dose: 75.0 mg/kg/injection, schedule: Q01DX009 (ip), vehicle: saline with Tween-80 111 % of control | dose: 150.0 mg/kg/injection, schedule: Q01DX009 (ip), vehicle: saline with Tween-80 112 % of control | dose: 300.0 mg/kg/injection, schedule: Q01DX009 (ip), vehicle: saline with Tween-80 112 % of control

Nc1ccc(OCCCOc2ccccc2)cc1
inactive: [14] 102 % of control | [4] 101 % of control | [15] 102 % of control | [6] 112 % of control | [16] 97 % of control

CS(=O)(=O)OCCN(CCOS(C)(=O)=O)c1ccc(C=Nc2cccc(Cl)c2)cc1
inactive: dose: 1.25 mg/kg/injection, schedule: Q04DX003 (ip), vehicle: Klucel (hydroxypropylcellulose) (HPC) 107 % of control | dose: 5.0 mg/kg/injection, schedule: Q04DX003 (ip), vehicle: Klucel (hydroxypropylcellulose) (HPC) 107 % of control

Cc1c(-c2ccccc2)sc(N)c1C#N
inactive: [14] 94 % of control | [4] 93 % of control and 100 % of control | [5] 94 % of control | [11] 95 % of control | [15] 93 % of control | [6] 92 % of control | [7] 94 % of control and 98 % of control | [12] 100 % of control | [16] 93 % of control | [8] 100 % of control and 87 % of control | [9] 96 % of control | [13] 100 % of control

COc1ccc(N=Nc2ccccn2)cc1
inactive: [10] 103 % of control | dose: 100.0 mg/kg/injection, schedule: Q01DX001 (ip), vehicle: Klucel (hydroxypropylcellulose) (HPC) 105 % of control | dose: 200.0 mg/kg/injection, schedule: Q01DX001 (ip), vehicle: Klucel (hydroxypropylcellulose) (HPC) 103 % of control

Nc1ncnc(N)c1NC(=O)c1cccc([N+](=O)[O-])c1
inactive: [1] 98 % of control | [2] 103 % of control | [3] 93 % of control

CCCNC(=S)Nc1ccccc1
inactive: dose: 75.0 mg/kg/injection, schedule: Q01DX001 (ip), vehicle: other 101 % of control | dose: 150.0 mg/kg/injection, schedule: Q01DX001 (ip), vehicle: other 107 % of control
